# Assay results taken from the SangsterLogP compilation.
# Assay: not given
row,SMILES,logP
1,COc1ccc(S(=O)(=O)c2ccc(N)cc2)c(OC)c1,1.65
2,CN(C)c1ccc(S(=O)(=O)c2ccc(N)cc2)cc1,1.93
3,Nc1ccc(S(=O)(=O)c2ccc([N+](=O)[O-])cc2)cc1,2.03
4,COc1cccc(S(N)(=O)=O)c1,0.65
5,N#Cc1cccc(S(N)(=O)=O)c1,0.27
6,N#Cc1ccc(S(N)(=O)=O)cc1,0.4
7,COC(=O)c1ccc(S(=O)(=O)c2ccc(N)cc2)cc1,2.13
8,Cc1ccc(S(=O)(=O)c2ccc(N)cc2)c(C)c1,2.69
9,Nc1ccc(S(=O)(=O)c2ccc([N+](=O)[O-])cc2[N+](=O)[O-])cc1,1.84
10,NC(=O)c1cccc(S(N)(=O)=O)c1,-0.55
11,NS(=O)(=O)c1ccc(S(N)(=O)=O)cc1,-0.7
12,NS(=O)(=O)c1cccc([N+](=O)[O-])c1,0.6
13,Nc1ccc(S(=O)(=O)c2ccc(Br)cc2)cc1,3.15
14,NC(=O)c1ccc(S(N)(=O)=O)cc1,-0.66
15,Cc1ccc(S(N)(=O)=O)cc1,0.83
16,Nc1ccc(S(=O)(=O)c2ccccc2)cc1,1.84
17,NS(=O)(=O)c1ccccc1,0.33
18,CC(=O)c1ccc(S(N)(=O)=O)cc1,0.31

# Assay: method code SF-AS, from DOI: 10.1111/j.2042-7158.1991.tb06664.x, PMID: 1675277
row,SMILES,logP
1,COc1cc(OC)c(S(=O)(=O)c2ccc(N)cc2)c(OC)c1,1.03
2,CCN(CC)C(=O)c1ccc(S(=O)(=O)c2ccc(N)cc2)cc1,1.44
3,CCNc1ccc(S(=O)(=O)c2ccc(N)cc2)cc1,1.98
4,Cc1ccc(S(=O)(=O)c2ccc(N)cc2)cc1,2.4
5,Nc1ccc(S(=O)(=O)c2ccc(NO)cc2)cc1,0.88
6,CC(=O)c1ccc(S(=O)(=O)c2ccc(N)cc2)cc1,1.67
7,Nc1ccc(S(=O)(=O)c2ccc(N)cc2N)cc1,0.38
8,Nc1ccc(S(=O)(=O)c2ccc(F)cc2)cc1,2.01
9,Nc1ccc(S(=O)(=O)c2c(O)cc(O)cc2O)cc1,1.53
10,CCN(CC)c1ccc(S(=O)(=O)c2ccc(N)cc2)cc1,3
11,Nc1ccc(S(=O)(=O)c2ccc(O)cc2O)cc1,1.29
12,Cc1cc(C)c(S(=O)(=O)c2ccc(N)cc2)c(C)c1,3.06
13,Nc1ccc(S(=O)(=O)c2ccccc2N)cc1,1.56
14,N#Cc1ccc(S(=O)(=O)c2ccc(N)cc2)cc1,1.63
15,NC(=O)c1ccc(S(=O)(=O)c2ccc(N)cc2)cc1,0.9
16,Nc1ccc(S(=O)(=O)c2cccc(N)c2)cc1,1.03
17,COc1ccc(S(=O)(=O)c2ccc(N)cc2)cc1,1.96
18,Nc1ccc(S(=O)(=O)c2ccc(Cl)cc2)cc1,2.57
19,Nc1ccc(S(=O)(=O)c2ccc(Cl)cc2Cl)cc1,3.12
20,Nc1ccc(S(=O)(=O)c2ccc(O)cc2)cc1,1.57
